According to patent US20220298115A1, “SMALL MOLECULE INHIBITORS OF ACETYL COENZYME A SYNTHETASE SHORT CHAIN 2 (ACSS2)” (Curadev Pharma Pvt. Ltd., priority 2019, published 2022):

Tests used:
[1] = molecular target: T1, human ACSS2 (Homo sapiens, UniProt Q9NR19); assay: ACSS2 enzyme assay (acetyl-CoA formation, LC-MS/MS); type: biochemical; details: cytosolic fraction of BT474 cells as ACSS2 source; 100 μM acetate, CoA and ATP; 2 h at 25° C.; read-out: Enzyme Activity (IC50 range)
T1 construct: The cytosolic fraction of BT474 cells was used as a source of the ACSS2 enzyme; endogenous in cells; host or cells: BT474 cells (cytosolic fraction)
Protocol: Novel compounds were screened in a human ACSS2 enzyme assay. Briefly, the ACSS2 enzyme reaction was monitored by directly measuring acetyl-CoA formation. The cytosolic fraction of BT474 cells was used as a source of the ACSS2 enzyme. A short protocol for this assay is provided below.
Preparation of Cytosolic Fraction from BT474 Cells
9×10^6 cells were harvested by trypsinization followed by centrifugation. The cell pellet was washed with PBS and dissolved in 500 μl STM buffer (50 mM Tris-HCl pH7.4, 250 mM sucrose, 5 mM MgCl2 & protease-phosphatase inhibitor cocktail) and homogenized at 600-1000 rpm for 1 min. on ice followed by incubation for 30 min. with intermittent vortexing. Supernatant was collected by centrifugation at 800 g for 15 min. at 4° C. Cytosolic fraction was prepared by further centrifugation of the supernatant at 12000 g for 15 min. at 4° C. Total protein content of the cytosolic fraction was estimated & diluted to 1 mg/ml concentration in storage buffer (25 mM Tris-HCl pH7.4, 1 mM MgCl2, 1 mM DTT & 10% glycerol) and stored at −80° C. for further use.
100 ng of cytosolic fraction in buffer composed of 25 mM Tris-HCl pH7.4 1 mM MgCl2, 1 mM DTT & 0.05% Tween20 was preincubated with desired concentrations of novel compounds for 5 min. maintaining 1% DMSO. Reaction was started with addition of substrate mix (100 μM of acetate, CoA and ATP) and incubated for 2 h at 25° C. with constant shaking at 500 rpm. Post incubation the reaction was terminated by addition of 10% TCA followed by 5 fold dilution in water. The reaction mixture was centrifuged at 800 g for 10 min. at RT and acetyl-CoA detected in supernatant by LC-MS/MS (QTrap5500 ABSCIEX).

[2] = test system: [14C] acetate incorporation in macromolecules, BT474 cells; assay: Cell based [14C] acetate incorporation assay; details: Homo sapiens, BT-474, 3 h at 37° C., read-out: Cellular Activity (IC50 range)
Protocol: Cell Based [^14C] Acetate Incorporation Assay
In the cellular assay, ACSS2 inhibitors were screened against [^14C] acetate incorporation in macromolecules. 4×10^4 BT474 cells were plated in 96 well plates in growth media composed of DMEM & 10% FBS and incubated overnight in a 37° C., 5% CO2 incubator. The following day the cells were washed in HBSS and the assay was performed in 100 μl of HBSS. 50 μl of 4× compound in 4% DMSO was added to the cells and preincubated for 10 min. at 37° C. 50 μl of acetate solution (0.1 μCi ^14C acetate+10 μM ^12C acetate) was added to each well of the plate and incubated for 3 h in a 37° C., 5% CO2 incubator. Following incubation, cells were harvested with water on polyethylene imine (PEI) presoaked GF/C filtermat, air dried and radioactive count were recorded in Trilux micro beta Liquid Scintillation Counter (PerkinElmer).

T1 sequence (Q9NR19 whole entry): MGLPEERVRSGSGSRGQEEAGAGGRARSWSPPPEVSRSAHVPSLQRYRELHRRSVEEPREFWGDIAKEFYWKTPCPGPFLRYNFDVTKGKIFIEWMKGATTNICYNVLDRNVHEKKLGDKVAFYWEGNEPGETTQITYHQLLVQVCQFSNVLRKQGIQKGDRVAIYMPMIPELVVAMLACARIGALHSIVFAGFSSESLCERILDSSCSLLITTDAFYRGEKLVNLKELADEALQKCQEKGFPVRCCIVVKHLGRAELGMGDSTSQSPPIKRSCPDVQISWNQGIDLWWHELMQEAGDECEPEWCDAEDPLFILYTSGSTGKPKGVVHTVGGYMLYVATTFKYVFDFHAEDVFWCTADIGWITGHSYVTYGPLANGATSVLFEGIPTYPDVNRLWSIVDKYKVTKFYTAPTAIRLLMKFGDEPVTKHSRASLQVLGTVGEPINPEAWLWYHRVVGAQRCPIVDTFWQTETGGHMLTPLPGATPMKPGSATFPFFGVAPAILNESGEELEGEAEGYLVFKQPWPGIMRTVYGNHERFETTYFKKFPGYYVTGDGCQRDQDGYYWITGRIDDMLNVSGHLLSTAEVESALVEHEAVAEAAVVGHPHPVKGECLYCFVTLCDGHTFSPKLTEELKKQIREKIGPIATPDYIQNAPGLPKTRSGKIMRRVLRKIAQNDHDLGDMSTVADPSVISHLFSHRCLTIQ

Row | SMILES | IC50 [1] | IC50 [2]
1 | CCC(O)CNC(=O)Nc1ccc2nc(C3=CCCCC3)c(-c3ccccc3F)cc2c1 (centres unmarked) [Example 32, 1-(2-(cyclohex-1-en-1-yl)-3-(2-fluorophenyl)quinolin-6-yl)-3-(2-hydroxybutyl) urea] | ≤ 1000 nM | ≤ 1000 nM
2 | CCC(O)CNC(=O)Nc1ccc2nc(C3CCCCC3)c(-c3ccccc3F)cc2c1 (centres unmarked) [Example 39, 1-(2-cyclohexyl-3-(2-fluorophenyl)quinolin-6-yl)-3-(2-hydroxybutyl) urea] | > 10000 nM | ≤ 10000 nM
3 | CCC(O)CNC(=O)Nc1ccc2nc(C3CC3)c(-c3ccccc3)cc2c1 (centres unmarked) [Example 40, 1-(2-cyclopropyl-3-phenylquinolin-6-yl)-3-(2-hydroxybutyl) urea] | ≤ 1000 nM | ≤ 10000 nM
4 | CCC(O)CNC(=O)Nc1ccc2nc(-c3cccnc3O)c(-c3cccnc3O)cc2c1 (centres unmarked) [Example 42, 1-(2,3-bis(2-hydroxypyridin-3-yl)quinolin-6-yl)-3-(2-hydroxybutyl) urea] | > 10000 nM | > 10000 nM
5 | CCC(O)CNC(=O)Nc1ccc2nc(/C=C/c3ccccc3)c(-c3ccccc3)cc2c1 (centres unmarked) [Example 50, (E)-1-(2-hydroxybutyl)-3-(3-phenyl-2-styrylquinolin-6-yl)urea] | ≤ 10000 nM | > 10000 nM
6 | CCC(O)CNC(=O)Nc1ccc2nc(C)c(-c3ccccc3)cc2c1 (centres unmarked) [Example 52, 1-(2-hydroxybutyl)-3-(2-methyl-3-phenylquinolin-6-yl)urea] | < 100 nM | < 100 nM
7 | CCC(O)CNC(=O)Nc1ccc2nc(-c3ccccc3C#N)c(-c3ccccc3F)cc2c1 (centres unmarked) [Example 53, 1-(2-(2-cyanophenyl)-3-(2-fluorophenyl)quinolin-6-yl)-3-(2-hydroxybutyl) urea] | < 100 nM | ≤ 1000 nM
8 | CCC(O)CNC(=O)Nc1ccc2nc(-c3ccccc3N)c(-c3ccccc3F)cc2c1 (centres unmarked) [Example 54, 1-(2-(2-aminophenyl)-3-(2-fluorophenyl)quinolin-6-yl)-3-(2-hydroxybutyl) urea] | < 100 nM | < 100 nM
9 | CCC(O)CNC(=O)Nc1ccc2nc(-c3ccc(-c4ccccc4)cc3)c(-c3ccccc3)cc2c1 (centres unmarked) [Example 55, 1-(2-([1,1′-biphenyl]-4-yl)-3-phenylquinolin-6-yl)-3-(2-hydroxybutyl) urea] | ≤ 10000 nM | > 10000 nM
10 | CCC(O)CNC(=O)Nc1ccc2nc(CCc3ccccc3)c(-c3ccccc3)cc2c1 (centres unmarked) [Example 56, 1-(2-hydroxybutyl)-3-(2-phenethyl-3-phenylquinolin-6-yl)urea] | ≤ 10000 nM | ≤ 10000 nM
11 | CC[C@@H](O)CNC(=O)Nc1ccc2nc(-c3ccccc3)c(-c3ccccc3)c(C(N)=O)c2c1 [Example 57, (R)-6-(3-(2-hydroxybutyl)ureido)-2,3-diphenylquino-line-4-carboxamide] | < 100 nM | < 100 nM
12 | CCOc1ccccc1-c1nc2ccc(NC(=O)NCC(O)CC)cc2cc1-c1ccccc1 (centres unmarked) [Example 58, 1-(2-(2-ethoxyphenyl)-3-phenylquinolin-6-yl)-3-(2-hydroxybutyl) urea] | < 100 nM | < 100 nM
13 | CCC(O)CNC(=O)Nc1ccc2nc(-c3ccccc3OCC(C)C)c(-c3ccccc3)cc2c1 (centres unmarked) [Example 59, 1-(2-hydroxybutyl)-3-(2-(2-isobutoxyphe-nyl)-3-phenylquinolin-6-yl)urea] | < 100 nM | < 100 nM

The next lines start with the values.

Row | IC50 [1] | IC50 [2] | SMILES
14 | < 100 nM | < 100 nM | CCC(O)CNC(=O)Nc1ccc2nc(-c3ccccc3N(C)C)c(-c3ccccc3F)cc2c1 (centres unmarked) [Example 33, 1-(2-(2-(dimethylamino)phenyl)-3-(2-fluorophenyl)quinolin-6-yl)-3-(2-hydroxybutyl) urea]
15 | < 100 nM | < 100 nM | CCC(O)CNC(=O)Nc1ccc2nc(-c3ccncc3)c(-c3ccccc3F)cc2c1 (centres unmarked) [Example 34, 1-(3-(2-fluorophenyl)-2-(pyridin-4-yl)quinolin-6-yl)-3-(2-hydroxybutyl) urea]
16 | < 100 nM | < 100 nM | CC[C@@H](O)CNC(=O)Nc1ccc2nc(-c3ccccc3OC)c(-c3ccccc3F)cc2c1 [Example 35, (R)-1-(3-(2-fluorophenyl)-2-(2-methoxyphenyl)quinolin-6-yl)-3-(2-hydroxybutyl) urea]
17 | < 100 nM | < 100 nM | CC[C@H](O)CNC(=O)Nc1ccc2nc(-c3ccccc3OC)c(-c3ccccc3F)cc2c1 [Example 36, (S)-1-(3-(2-fluorophenyl)-2-(2-methoxyphenyl)quinolin-6-yl)-3-(2-hydroxybutyl) urea]
18 | < 100 nM | < 100 nM | CCCCNC(=O)Nc1ccc2nc(-c3ccccc3OC)c(-c3ccccc3F)cc2c1 [Example 37, 1-butyl-3-(3-(2-fluorophenyl)-2-(2-methoxyphenyl)quinolin-6-yl)urea]
19 | < 100 nM | ≤ 1000 nM | CCC(O)CNC(=O)Nc1ccc2nc(-c3ccccn3)c(-c3ccccc3)cc2c1 (centres unmarked) [Example 38, 1-(2-hydroxybutyl)-3-(3-phenyl-2-(pyridin-2-yl)quinolin-6-yl)urea]
20 | < 100 nM | < 100 nM | CCC(O)CNC(=O)Nc1ccc2nc(-c3cccnc3)c(-c3ccccc3)cc2c1 (centres unmarked) [Example 41, 1-(2-hydroxybutyl)-3-(3-phenyl-2-(pyridin-3-yl)quinolin-6-yl)urea]
21 | < 100 nM | ≤ 1000 nM | CCC(O)CNC(=O)Nc1ccc2nc(-c3cnn(C)c3)c(-c3ccccc3)cc2c1 (centres unmarked) [Example 43, 1-(2-hydroxybutyl)-3-(2-(1-methyl-1H-pyrazol-4-yl)-3-phenylquinolin-6-yl)urea]
22 | < 100 nM | < 100 nM | CCC(CNC(=O)Nc1ccc2nc(-c3ccccc3)c(-c3ccccc3F)cc2c1)OC (centres unmarked) [Example 44, 1-(3-(2-fluorophenyl)-2-phenylquinolin-6-yl)-3-(2-methoxybutyl) urea]
23 | < 100 nM | < 100 nM | CCC(F)(F)CNC(=O)Nc1ccc2nc(-c3ccccc3)c(-c3ccccc3F)cc2c1 [Example 45, 1-(2,2-Difluorobutyl)-3-(3-(2-fluorophenyl)-2-phenylquinolin-6-yl)urea]
24 | < 100 nM | < 100 nM | CCC(O)CNC(=O)Nc1ccc2nc(-c3cccc(F)c3)c(-c3ccccc3F)cc2c1 (centres unmarked) [Example 46, 1-(3-(2-fluorophenyl)-2-(3-fluorophenyl)quinolin-6-yl)-3-(2-hydroxybutyl) urea]
25 | < 100 nM | < 100 nM | CCC(O)CNC(=O)Nc1ccc2nc(-c3ccc(F)cc3)c(-c3ccccc3F)cc2c1 (centres unmarked) [Example 47, 1-(3-(2-fluorophenyl)-2-(4-fluorophenyl)quinolin-6-yl)-3-(2-hydroxybutyl) urea]
26 | < 100 nM | < 100 nM | CCC(O)CNC(=O)Nc1ccc2nc(-c3ccccc3)c(-c3ccccc3)c(C(=O)OC)c2c1 (centres unmarked) [Example 48, methyl 6-(3-(2-hydroxybutyl)ureido)-2,3-diphenylquino-line-4-carboxylate]
27 | < 100 nM | < 100 nM | CCC(O)CNC(=O)Nc1ccc2nc(-c3ccccc3)c(-c3ccccc3)c(C(N)=O)c2c1 (centres unmarked) [Example 49, 6-(3-(2-hydroxybutyl)ureido)-2,3-diphenylquino-line-4-carboxamide]
28 | < 100 nM | < 100 nM | CCC(O)CNC(=O)Nc1ccc2nc(-c3ccccc3NC(C)=O)c(-c3ccccc3F)cc2c1 (centres unmarked) [Example 51, N-(2-(3-(2-fluorophenyl)-6-(3-(2-hydroxybutyl)ureido)quinolin-2-yl)phenyl)acet-amide]
